Results published in US20250326753A1, “DUAL CXCR4-BTK INHIBITORS” (X4 Pharmaceuticals, Inc., priority 2022, published 2025).

Target: T1, BTK (Bruton tyrosine kinase) (Homo sapiens, UniProt Q06187)
T1 construct: GST or His (the text leaves open which); purchased Reaction Biology Europe GmbH Lot 012,11; host or cells: Sf9 insect cells or E. coli (not resolved)
Assay: BTK screening assay (33PanQinase Activity Assay, radiometric)
Format: biochemical
Conditions: not given
Protocol: Inhibition of BTK activity was evaluated using a radiometric protein kinase assay (33PanQinase® Activity Assay) to measure the activity of BTK (Bruton tyrosine kinase).
Kinase assays were performed in 96-well ScintiPlates™ from Perkin Elmer (Boston, MA, USA) in a 50 μL reaction volume. The reaction cocktail was pipetted in four steps in the following order: 10 μL of non-radioactive ATP solution (in H2O); 25 μL of assay buffer/[γ-^33P]-ATP mixture; 5 μL of compound test sample in 10% DMSO; 10 μL of enzyme/substrate mixture.
BTK kinase was expressed in Sf9 insect cells or in E. coli as recombinant GST-fusion proteins or His-tagged proteins, either as full-length or enzymatically active fragments from human cDNAs, and purified by either GSH-affinity chromatography or immobilized metal. Purity was examined by SDS-PAGE/Coomassie staining, and identity confirmed by mass spectroscopy.
The reaction cocktails were incubated at 30° C. for 60 minutes. The reaction was stopped with 50 μL of 2% (v/v) H3PO4, plates were aspirated and washed two times with 200 μL 0.9% (w/v) NaCl. Incorporation of ^33Pi (counting of “cpm”) was determined with a microplate scintillation counter (Microbeta, Wallac).
The median value of the counts in wells containing assay buffer without enzyme, and without test compound was defined as “low control.” This value reflects unspecific binding of radioactivity to the plate in the absence of a protein kinase but in the presence of the substrate. The median value of the counts in wells containing assay buffer without test compound was defined as the “high control,” i.e. full activity in the absence of any inhibitor. The difference between high and low control was taken as 100% activity. Residual activity (in %) was calculated using the following formula: Res. Activity (%)=100×[(cpm of compound-low control)/(high control-low control)].
The fitting method used was a least-squares fit.

T1 sequence (Q06187 whole entry): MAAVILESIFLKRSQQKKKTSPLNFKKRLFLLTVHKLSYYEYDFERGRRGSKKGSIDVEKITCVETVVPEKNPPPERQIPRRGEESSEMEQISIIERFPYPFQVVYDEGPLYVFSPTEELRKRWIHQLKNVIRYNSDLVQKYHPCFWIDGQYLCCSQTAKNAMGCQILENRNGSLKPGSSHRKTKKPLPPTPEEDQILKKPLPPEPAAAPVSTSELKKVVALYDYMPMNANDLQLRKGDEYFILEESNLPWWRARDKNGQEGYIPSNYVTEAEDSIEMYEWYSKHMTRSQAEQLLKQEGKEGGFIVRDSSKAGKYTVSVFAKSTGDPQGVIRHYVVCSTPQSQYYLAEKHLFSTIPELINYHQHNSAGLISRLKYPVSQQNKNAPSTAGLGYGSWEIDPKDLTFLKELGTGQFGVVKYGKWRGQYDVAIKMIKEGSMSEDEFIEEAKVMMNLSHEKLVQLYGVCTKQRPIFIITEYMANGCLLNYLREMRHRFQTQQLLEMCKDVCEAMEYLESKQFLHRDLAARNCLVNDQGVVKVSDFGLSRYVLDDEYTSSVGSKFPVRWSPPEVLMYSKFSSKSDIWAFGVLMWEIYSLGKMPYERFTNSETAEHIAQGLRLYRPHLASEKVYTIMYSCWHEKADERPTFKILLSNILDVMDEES

| SMILES | IC50 [nM] |
| --- | --- |
| Cc1cccnc1[C@H]1CCC[C@@H](c2ncccc2C)N1CCNC(=O)c1cc2c(-c3cccc(NC(=O)c4ccccc4)c3C)ncnc2[nH]1 [Compound I-74] | > 2500 |

Same assay, conditions: Inhibition of BTK, radiometric 33PanQinase Activity Assay, 3 μM ATP, 10 concentrations in singlicate, top 10 μM; read-out: 33PanQinase ® Radiometric IC50

| SMILES | IC50 [nM] |
| --- | --- |
| CCOC1CN(C(=O)NCc2ccc(-c3ccnc(Nc4cnn(CCN5[C@@H](c6ncccc6C)CCC[C@H]5c5ncccc5C)c4)n3)cc2C)C1 [Compound I-53] | 1 to 100 |
| CCOC1CN(C(=O)NCc2ccc(-c3ccnc(Nc4cnn(CCCN5[C@@H](c6ncccc6C)CCC[C@H]5c5ncccc5C)c4)n3)cc2C)C1 [Compound I-55] | 1 to 100 |
| CCc1ccc(C(=O)NCc2ccc(-c3ncnc4[nH]c(C(=O)NCCCN5[C@@H](c6ncccc6C)CCC[C@H]5c5ncccc5C)cc34)cc2C)cc1 [Compound I-51] | 1 to 100 |
| Cc1cccnc1[C@H]1CCC[C@@H](c2ncccc2C)N1CCCCNC1CN(C(=O)c2cc3c(-c4cccc(NC(=O)c5ccc(F)cc5)c4C)ncnc3[nH]2)C1 [Compound I-92] | 1000 to 2500 |
| Cc1ccccc1Oc1ccc(C(=O)c2c[nH]c3ncnc(N[C@@H]4CC[C@@H](C(=O)NCCCCN5[C@@H](c6ncccc6C)CCC[C@H]5c5ncccc5C)OC4)c23)c(Cl)c1 [Compound I-60] | 1 to 100 |
| Cc1cccnc1[C@H]1CCC[C@@H](c2ncccc2C)N1CCCCNC(=O)c1cc2c(-c3cccc(NC(=O)c4ccc(F)cc4)c3C)ncnc2[nH]1 [Compound I-89] | > 2500 |
| Cc1cccnc1[C@H]1CCC[C@@H](c2ncccc2C)N1CCCNC(=O)c1cc2c(-c3cccc(NC(=O)c4ccc(F)cc4)c3C)ncnc2[nH]1 [Compound I-88] | > 2500 |
| Cc1cc(-c2ncnc3[nH]c(C(=O)NCCCN4[C@@H](c5ncccc5C)CCC[C@H]4c4ncccc4C)cc23)ccc1CNC(=O)c1cccc(F)c1 [Compound I-82] | 100 to 1000 |
| Cc1cccc(Oc2ccc(C(=O)c3c[nH]c4ncnc(N[C@@H]5CC[C@@H](C(=O)NCCCCN6[C@@H](c7ncccc7C)CCC[C@H]6c6ncccc6C)OC5)c34)c(Cl)c2)c1 [Compound I-59] | 1 to 100 |
| Cc1cccnc1[C@H]1CCC[C@@H](c2ncccc2C)N1CCN1CCN(C(=O)c2ccc(-c3cc4c(-c5cccc(NC(=O)c6ccc(F)cc6)c5C)ncnc4[nH]3)cc2)CC1 [Compound I-67] | 1 to 100 |
| Cc1cccnc1[C@H]1CCC[C@@H](c2ncccc2C)N1CCCNC1CN(C(=O)c2cc3c(-c4cccc(NC(=O)c5ccc(F)cc5)c4C)ncnc3[nH]2)C1 [Compound I-91] | > 2500 |
| Cc1cc(-c2ncnc3[nH]c(C(=O)NCCCCN4[C@@H](c5ncccc5C)CCC[C@H]4c4ncccc4C)cc23)ccc1CNC(=O)c1ccccc1 [Compound I-47] | 1 to 100 |
| Cc1cccnc1[C@H]1CCC[C@@H](c2ncccc2C)N1CCNC1CN(C(=O)c2cc3c(-c4cccc(NC(=O)c5ccc(F)cc5)c4C)ncnc3[nH]2)C1 [Compound I-90] | > 2500 |
| Cc1cc(-c2ccnc(Nc3cnn(CCCN4[C@@H](c5ncccc5C)CCC[C@H]4c4ncccc4C)c3)n2)ccc1CNC(=O)N1CC(OC(F)(F)F)C1 [Compound I-57] | 1 to 100 |
| Cc1cccnc1[C@H]1CCC[C@@H](c2ncccc2C)N1CCCNC(=O)c1cc2c(-c3cccc(NC(=O)c4ccccc4)c3C)ncnc2[nH]1 [Compound I-75] | > 2500 |
| Cc1cccnc1[C@H]1CCC[C@@H](c2ncccc2C)N1CCNC(=O)c1cc2c(-c3cccc(NC(=O)c4ccc(F)cc4)c3C)ncnc2[nH]1 [Compound I-87] | > 2500 |
| Cc1cccnc1[C@H]1CCC[C@@H](c2ncccc2C)N1CCCCNC(=O)c1cc2c(-c3cccc(NC(=O)c4ccccc4)c3C)ncnc2[nH]1 [Compound I-76] | > 2500 |
| Cc1cc(-c2ccnc(Nc3cnn(CCCCN4[C@@H](c5ncccc5C)CCC[C@H]4c4ncccc4C)c3)n2)ccc1CNC(=O)N1CC(OC(C)C)C1 [Compound I-29] | 1 to 100 |
| Cc1cc(-c2ncnc3[nH]c(C(=O)NCCCN4[C@@H](c5ncccc5C)CCC[C@H]4c4ncccc4C)cc23)ccc1CNC(=O)c1ccccc1 [Compound I-50] | 1 to 100 |
| Cc1cc(-c2ccnc(Nc3cnn(CCCN4[C@@H](c5ncccc5C)CCC[C@H]4c4ncccc4C)c3)n2)ccc1CNC(=O)N1CC(OC(C)(C)C)C1 [Compound I-56] | 1 to 100 |

| SMILES | IC50 [nM] |
| --- | --- |
| Cc1cc(-c2ncnc3[nH]c(C(=O)NCCCCN4[C@@H](c5ncccc5C)CCC[C@H]4c4ncccc4C)cc23)ccc1CNC(=O)c1ccc(F)cc1 [Compound I-49] | 1 to 100 |
| Cc1cc(-c2ncnc3[nH]c(C(=O)NCCCN4[C@@H](c5ncccc5C)CCC[C@H]4c4ncccc4C)cc23)ccc1CNC(=O)c1ccc(F)cc1 [Compound I-52] | 1 to 100 |
| Cc1cc(-c2ncnc3[nH]c(C(=O)NCCN4[C@@H](c5ncccc5C)CCC[C@H]4c4ncccc4C)cc23)ccc1CNC(=O)c1cc(F)cc(F)c1 [Compound I-84] | 100 to 1000 |
| Cc1cc(-c2ncnc3[nH]c(C(=O)NCCN4[C@@H](c5ncccc5C)CCC[C@H]4c4ncccc4C)cc23)ccc1CNC(=O)c1ccc(F)cc1 [Compound I-80] | 100 to 1000 |
| Cc1cc(-c2ncnc3[nH]c(C(=O)NCCCCN4[C@@H](c5ncccc5C)CCC[C@H]4c4ncccc4C)cc23)ccc1CNC(=O)c1cc(F)cc(F)c1 [Compound I-86] | 100 to 1000 |
| Cc1cc(-c2ncnc3[nH]c(C(=O)NCCCN4[C@@H](c5ncccc5C)CCC[C@H]4c4ncccc4C)cc23)ccc1CNC(=O)c1cc(F)cc(F)c1 [Compound I-85] | 100 to 1000 |
| Cc1cccnc1[C@H]1CCC[C@@H](c2ncccc2C)N1CCN1CCN(C(=O)[C@]23C[C@](c4cc5c(-c6cccc(NC(=O)c7ccccc7)c6C)ncnc5[nH]4)(C2)C3)CC1 [Compound I-71] | 1000 to 2500 |
| Cc1cccnc1[C@H]1CCC[C@@H](c2ncccc2C)N1CCCNC1CN(C(=O)c2cc3c(-c4cccc(NC(=O)c5ccccc5)c4C)ncnc3[nH]2)C1 [Compound I-78] | > 2500 |
| Cc1cccnc1[C@H]1CCC[C@@H](c2ncccc2C)N1CCNC1CN(C(=O)c2cc3c(-c4cccc(NC(=O)c5ccccc5)c4C)ncnc3[nH]2)C1 [Compound I-77] | > 2500 |
| COC1CN(C(=O)NCc2ccc(-c3ccnc(Nc4cnn(CCCN5[C@@H](c6ncccc6C)CCC[C@H]5c5ncccc5C)c4)n3)cc2C)C1 [Compound I-54] | 1 to 100 |
| Cc1cccnc1C1CCCCN1CCN1CCN(C(=O)c2ccc(-c3cc4c(-c5cccc(NC(=O)c6ccccc6)c5C)ncnc4[nH]3)cc2)CC1 (centres unmarked) [Compound I-73] | 100 to 1000 |
| CC(=O)Nc1cccc(-c2ncnc3[nH]c(-c4ccc(C(=O)N5CCN(CCN6[C@@H](c7ncccc7C)CCC[C@H]6c6ncccc6C)CC5)cc4)cc23)c1C [Compound I-69] | 1 to 100 |
| Cc1cc(-c2ncnc3[nH]c(C(=O)NCCCCN4[C@@H](c5ncccc5C)CCC[C@H]4c4ncccc4C)cc23)ccc1CNC(=O)c1cccc(F)c1 [Compound I-83] | 100 to 1000 |
| Cc1cc(-c2ncnc3[nH]c(C(=O)NCCN4[C@@H](c5ncccc5C)CCC[C@H]4c4ncccc4C)cc23)ccc1CNC(=O)c1cccc(F)c1 [Compound I-81] | 100 to 1000 |
| Cc1cccnc1[C@H]1CCC[C@@H](c2ncccc2C)N1CCN1CCN(C(=O)c2ccc(-c3cc4c(-c5cccc(NC(=O)c6ccccc6F)c5C)ncnc4[nH]3)cc2)CC1 [Compound I-68] | 1 to 100 |
| Cc1ccc(Oc2ccc(C(=O)c3c[nH]c4ncnc(N[C@@H]5CC[C@@H](C(=O)NCCCCN6[C@@H](c7ncccc7C)CCC[C@H]6c6ncccc6C)OC5)c34)c(Cl)c2)cc1 [Compound I-58] | 1 to 100 |
| CCc1ccc(C(=O)NCc2ccc(-c3ncnc4[nH]c(C(=O)NCCCCN5[C@@H](c6ncccc6C)CCC[C@H]5c5ncccc5C)cc34)cc2C)cc1 [Compound I-48] | 1 to 100 |
| Cc1cccnc1[C@H]1CCC[C@@H](c2ncccc2C)N1CCCCNC1CN(C(=O)c2cc3c(-c4cccc(NC(=O)c5ccccc5)c4C)ncnc3[nH]2)C1 [Compound I-79] | > 2500 |
| Cc1cccnc1[C@H]1CCC[C@@H](c2ncccc2C)N1CCN1CCN(C(=O)c2ccc(-c3cc4c(-c5cccc(NC(=O)C(C)(C)C)c5C)ncnc4[nH]3)cc2)CC1 [Compound I-70] | 100 to 1000 |

Target: CXCR4 (Homo sapiens, UniProt P61073)
Assay: Intracellular CXCL-12-induced calcium mobilization assay (FLIPR), U87.CXCR4 cells
Format: cell-based
Parameters: expressed in transfected cells; host or cells: U87 (U87.CXCR4)
Conditions: CXCL-12 25-50 ng/ml, read-out: IC50 CXCL-12 Ca2+ flux U87.CXCR4+
Protocol: Intracellular calcium mobilization induced by chemokines or chemokine-derived peptides were evaluated using a calcium responsive fluorescent probe and a FLIPR system. The CXCR-4 transfected U87 cell line (U87.CXCR4) cells were seeded in gelatine-coated black-wall 96-well plates at 20,000 cells per well and incubated for 12 hours. Cells were then loaded with the fluorescent calcium probe Fluo-2 acetoxymethyl at 4 μM final concentration in assay buffer (Hanks' balanced salt solution with 20 mM HEPES buffer and 0.2% bovine serum albumin, pH 7.4) for 45 min at 37° C. The intracellular calcium mobilization induced by the CXCL-12 (25-50 ng/ml) was then measured at 37° C. by monitoring the fluorescence as a function of time in all the wells simultaneously using a fluorometric imaging plate reader (FLIPR Tetra, Molecular Devices).

Chain of CXCR4 (P61073 whole entry): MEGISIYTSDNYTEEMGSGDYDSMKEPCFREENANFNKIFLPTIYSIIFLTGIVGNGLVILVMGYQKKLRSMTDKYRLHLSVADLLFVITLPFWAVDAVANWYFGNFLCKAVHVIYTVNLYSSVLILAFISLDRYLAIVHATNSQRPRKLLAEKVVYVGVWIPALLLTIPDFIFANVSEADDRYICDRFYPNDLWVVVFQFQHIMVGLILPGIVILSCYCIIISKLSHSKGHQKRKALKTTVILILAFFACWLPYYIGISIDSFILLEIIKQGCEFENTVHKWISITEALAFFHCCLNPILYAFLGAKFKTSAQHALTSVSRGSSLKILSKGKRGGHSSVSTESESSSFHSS

| SMILES | IC50 [nM] |
| --- | --- |
| Cc1cc(-c2ccnc(Nc3cnn(CCCCN4[C@@H](c5ncccc5C)CCC[C@H]4c4ncccc4C)c3)n2)ccc1CNC(=O)N1CC(OC(C)C)C1 [Compound I-29] | > 2500 |
